Values quoted from earlier work in patent publication US7378418B2, “Azabicyclic heterocycles as cannabinoid receptor modulators” (Bristol-Myers Squibb Company, priority 2003, dated 2008).

Key:
[1] = tested on: human subjects; conditions: 16 week trial period, published Phase IIb data
[2] = chronic administration for two weeks (Hildebrandt et al. 2003)

| SMILES | body weight [1] | body weight [2] |
| --- | --- | --- |
| Cc1c(C(=O)NN2CCCCC2)nn(-c2ccc(Cl)cc2Cl)c1-c1ccc(Cl)cc1 [SR-141716] | dose-dependently reduced body weight |  |
| Cc1c(C(=O)NN2CCCCC2)nn(-c2ccc(Cl)cc2Cl)c1-c1ccc(I)cc1 [AM-251] |  | substantial body weight reduction |
